Data reported in patent US5561234A, “1-(7-chloroquinolin-4-yl)pyrazole-3-carboxamide N-oxide derivatives, method of preparing them, and their pharmaceutical compositions” (Sanofi, priority 1994, dated 1996).
≈ marks a conversion by molar mass, not a printed value. Read-outs that look alike come from different tables or passages of the source.

Assay: comparative solubility study, saturated solutions at 25° C., assayed by liquid chromatography
Assay type: physicochemical
Procedure: The media studied are water, ethanol and a water/polyethylene glycol 400 mixture (70/30 v/v).
The solubility measurements were made at 25° C. after stirring of the saturated solutions for 3 or 5 hours.
After achieving conditions under which the products solubilized in water are not adsorbed on certain filters, the solutions are filtered and then assayed by liquid chromatography (column μmBondapak C18, eluent acetonitrile/trifluoroacetic acid, detection at 254 nm, flow rate 1 ml/minute).

[1] = organic solvent or mixture, ethanol, stirring of saturated solution for 3 or 5 hours, read-out: solubility in ethanol
[2] = water, stirring of saturated solution for 3 or 5 hours, read-out: solubility in water
[3] = water/peg 400 70/30, organic solvent or mixture, water/polyethylene glycol 400 mixture (70/30 v/v), stirring for 3 or 5 hours, read-out: solubility in water/PEG

Row | Structure (SMILES) | solubility [1] [mg/mL] | solubility [2] [mg/mL] | solubility [3] [mg/mL]
1 | COc1cccc(OC)c1-c1cc(C(=O)NC2(C(=O)O)C3CC4CC(C3)CC2C4)nn1-c1cc[n+]([O-])c2cc(Cl)ccc12 (stereo not drawn) [EXAMPLE 2, 2-{[1-(1-oxido-7-chloroquinolin-4-yl)-5-(2,6-dimethoxyphenyl)-pyrazol-3-yl]carbonylamino}adamantane-2-carboxylic acid] | 10.3 (≈ 17100 µM) | 0.0017 (≈ 2.82 µM) | 0.03 (≈ 49.7 µM)
2 | COc1cccc(OC)c1-c1cc(C(=O)NC2(C(=O)O)C3CC4CC(C3)CC2C4)nn1-c1ccnc2cc(Cl)ccc12 (stereo not drawn) [SR48692, 2-{[1-(7-Chloroquinolin-4-yl)-5-(2,6-dimethoxyphenyl)pyrazol-3-yl]carbonylamino}adamantane-2-carboxylic acid] | 1.3 (≈ 2210 µM) | 0.0004 (≈ 0.681 µM) | < 0.001
